Assay [1] addresses T1, human neuronal constitutive NOS (hncNOS) (Homo sapiens, UniProt P29475).
T1 construct: made in house; host or cells: insect cells, baculovirus vector
Nature of the assay: Citrulline Assay for Nitric Oxide Synthase, hncNOS. It counts as biochemical. To be noted: 37° C., 15 minutes, with calmodulin 40-100 nM. The procedure: (§1) Citrulline Assay for Nitric Oxide Synthase
(§2) Nitric oxide synthase activity was measured by monitoring the conversion of L-[2,3-3H]-arginine to L-[2,3-3H]-citrulline (1,2). The cDNA for human inducible NOS (hiNOS) was isolated from a λcDNA library made from RNA extracted from a colon sample from a patient with ulcerative colitis; human endothelial constitutive NOS (hecNOS) was isolated from a λcDNA library made from RNA extracted from human umbilical vein endothelial cells (HUVEC); and human neuronal constitutive NOS (hncNOS) was isolated from a λcDNA library made from RNA extracted from human cerebellum from a cadaver. The recombinant enzymes were expressed in insect cells using a baculovirus vector. Enzyme activity was isolated from cell extracts and partially purified by DEAE-Sepharose chromatography (2). Enzyme and inhibitors were added to give a volume of 50 μL in 50 mM Tris (pH 7.6) and the reaction initiated by the addition of 50 μL of a solution containing 50 mM Tris (pH 7.6), 2.0 mg/mL bovine serum albumin, 2.0 mM DTT, 4.0 mM CaCl2, 20 μM FAD, 100 μM tetrahydrobiopterin, 0.4-2.0 mM NADPH and 60 μM L-arginine containing 0.9 μCi of L-[2,3-3H]-arginine. […] The [3H]-citrulline was separated by chromatography on Dowex 50W X-8 cation exchange resin and radioactivity quantified with a liquid scintillation counter.

Assay [2] has as its target T2, human endothelial constitutive NOS (hecNOS) (Homo sapiens, UniProt P29474).
T2 construct: made in house; host or cells: insect cells, baculovirus vector
Nature of the assay: Citrulline Assay for Nitric Oxide Synthase, hecNOS. It counts as biochemical. To be noted: 37° C., 15 minutes, with calmodulin 40-100 nM. The procedure:
as §1, §2

The target of assay [3] is T3, human inducible NOS (hiNOS) (Homo sapiens, UniProt P35228).
T3 construct: made in house; host or cells: insect cells, baculovirus vector
The experiment in a line: Citrulline Assay for Nitric Oxide Synthase, hiNOS. Type of assay: biochemical. To be noted: 37° C., 15 minutes, L-[2,3-3H]-arginine to citrulline. Here is the method:
as §1, §2

For assay [4], the system named is constitutive and the inducible NO synthase. As to conditions: background statement; cited from earlier work.

pIC50: −log10 of the molar value. Counter-ions that a name gives are not always drawn.

For `CC(=N)NCCCC[C@H](N)CNC(=N)N` [Example 2, N-[5S-amino-6-[(aminoiminomethyl)amino]hexyl]ethanimidamide, trihydrochloride], the pIC50 (in general, the IC50 on a negative log10 scale, so that one unit is a factor of ten) in assay [1] is 4.46; in assay [2] it was 3.32; in assay [3], 4.66.

Turning to `CC(=N)NCCCC[C@H](N)CNS(C)(=O)=O` [Example 3, N-[5S-amino-6-[(methylsulfonyl)amino]hexyl]ethanimidamide, dihydrochloride], the results for the pIC50 in assay [1], in assay [2] and in assay [3] were 3.08, 2.18 and 3.97, respectively.

On to `CN=C(N)NCCC[C@H](N)C(=O)O` [L-NMMA, L-N-monomethyl-arginine], for which the “selectivity between constitutive and inducible NO synthase” value in assay [4] is listed as “non-selective”.

(Values after patent US5830917A, “L-N^6 -(1-iminoethyl) lysine derivatives useful as nitric oxide synthase inhibitors” (G. D. Searle & Co., priority 1995, dated 1998).)
